The nature of one series: Solubility in water. It counts as physicochemical. The settings on record: for Solubility in water, result: water at 37° C., sampling 5 hours, UV detection. From the text:
Solubility in Water [table]

The test system of series [1] is humans who suffer from rheumatic arthritis. The series is described as follows: Efficacy in humans who suffer from rheumatic arthritis. The following applies: drug comprising an effective content. It counts as in vivo.
The nature of series [2]: Stability of the first crystal modification on storage (X-ray diffraction pattern). It counts as physicochemical. The following applies: +40° C./75% relative humidity.
Experiment in series [3]: as above
Format: physicochemical. Here is the method:
Stability of the First Crystal Modification Samples of The first crystal modification were prepared as in Example 1 and were stored at various temperatures at atmospheric humidity. After the stated times, samples were taken and an X-ray diffraction pattern was prepared as in Example 1. […] For preparing the calibration curve for the quantitative determination, the reflection at 2θ=8.35° was used for phase 1 and the reflection at 2θ=16.1° was used for phase 2. The ratios of the corresponding peak heights were calculated and were correlated with the contents of phase 2. The limit of the method is 0.3%. The sample after storage for 1 month at 60° C. contains about 76% of the second crystal modification according to this method.

Molecules are shown by their SMILES. Values after ≈ are worked out from the molar mass of the structure shown.

What is called solubility is the concentration that dissolves in the medium under given conditions. Regarding `Cc1oncc1C(=O)Nc1ccc(C(F)(F)F)cc1` [first crystal modification, N-(4-trifluoromethylphenyl)-5-methylisoxazole-4-carboxamide], the “Solubility in water, result” value in “Solubility in water” was 38 mg dissolved in 1 liter of water at 37 °C. In the series “Solubility in water” (water, 37 °C, water, thermodynamic from solid, water, 37° C., read-out: water solubility (amount that can be dissolved)), the solubility was found to be 38 µg/mL (≈ 141 µM). Also, in series [1], the “efficacy in comparison with a drug comprising the second crystal modification” value is “same efficacy”. Moreover, the Crystal modification entry in series [2] (1 month) is given as “First”; in series [2] (3 months), “First”; in series [2] (6 months), “First”; in series [3] (1 month, +25° C.), “First”; in series [3] (1 month, +40° C.), “First”; in series [3] (1 month, −15° C.), “First”. The Crystal modification result in series [3] (3 months, +25° C.) is on record as “First”; in series [3] (3 months, +40° C.), “First”; in series [3] (3 months, +60° C.) it was “Second”; in series [3] (3 months, −15° C.), “First”; in series [3] (6 months, +25° C.), “First”; in series [3] (6 months, +40° C.) it was “First”. Further, the Crystal modification entry in series [3] (6 months, −15° C.) is given as “First”. For the same compound, the “stability (not converted into the second crystal modification)” value in series [3] (temperature range from −15° C. to +40° C.) was “stable”.
On to `Cc1oncc1C(=O)Nc1ccc(C(F)(F)F)cc1` [second crystal modification, N-(4-trifluoromethylphenyl)-5-methylisoxazole-4-carboxamide], for which the “Solubility in water, result” value in the series “Solubility in water” is 25 mg dissolved in 1 liter of water at 37 °C. Further, in the series “Solubility in water” (water, 37° C.), the “water solubility (amount that can be dissolved)” value is 25 µg/mL (≈ 92.5 µM).
